Assay [1] has as its system MCF-7 human breast cancer cells. Kind of assay: cells. The text has this: Cell viability studies are typically conducted on cells that are actively dividing, in the linear range of logarithmic division. However, tumors are typically dense, highly populated 3-dimensional cultures.
In a further assay the test system is breast cancer cell lines. As to conditions: read-out: EC50 previously reported; cited from earlier work.

pEC50: −log10 of the molar value.

As to `NC(=O)NO` [hydroxyurea], the pEC50 – broadly, the EC50 on a negative log10 scale, so that one unit is a factor of ten – in assay [1] (MCF7, MCF-7 cells cultured at 1×10^4/well) was 3.70; in assay [1] (MCF7, MCF-7 cells cultured at 2×10^4/well), 3.40; in assay [1] (MCF7, MCF-7 cells cultured at 4×10^4/well) it was 3.10; in assay [1] (MCF7, lowest cell concentration, 1×10^4 cells/well), 3.70; in the assay with breast cancer cell lines it was around 3.70.

Values taken from patent US20240316215A1, “CONTROLLED DRUG RELEASE MATERIAL” (ADURO MATERIAL AB, priority 2021, published 2024).
